From publication PMC8102414 (Heliyon, 2021)
In brackets after ≈: the same amount, converted by molar mass.

How the values were obtained:
[1] = tested on: advanced glycation end products (AGEs); test: Glycation inhibition assay; assay type: biochemical; settings: Inactive at >100 μM; for IC50: read-out: Glycation inhibition (IC50)
[2] = tested on: 3T3-L1 adipocyte cells; test: Glucose consumption assay; assay type: cell-based; settings: induction of glucose consumption, 3T3-L1 adipocyte cells; Inactive at >100 μM
[3] = tested on: RAW 264.7 cells; test: Nitric oxide production inhibition assay; assay type: cell-based; settings: for NO Inhibition (IC50, μM): LPS-stimulated NO production in RAW 264.7 cells, Inactive at >100 μM
[4] = tested on: Salmonella typhi DMST 22842; test: microbe, parasite or virus in culture; assay type: cell-based; settings: for MIC: Salmonella enterica, TYPHI, read-out: MIC (μg/mL) ST; for MIC (μg/mL) ST: Gram-negative, Salmonella typhi (DMST 22842), Inactive at >128 μg/mL
[5] = tested on: Enterococcus faecalis ATCC 29212; test: Antimicrobial MIC, 2-fold serial dilution; settings: for MIC (μg/mL) EF: Gram-positive, Enterococcus faecalis (ATCC 29212), Inactive at >128 μg/mL; for MIC: Enterococcus faecalis, ATCC29212, read-out: MIC (μg/mL) EF
[6] = tested on: Micrococcus luteus DMST 15503; test: Antimicrobial MIC, 2-fold serial dilution; settings: for MIC: Micrococcus luteus, DMST15503, read-out: MIC (μg/mL) MT; for MIC (μg/mL) MT: Gram-positive, Micrococcus luteus (DMST 15503), Inactive at >128 μg/mL
[7] = tested on: methicillin resistant Staphylococcus aureus NPRC 001R; test: Antimicrobial MIC, 2-fold serial dilution; settings: for MIC (μg/mL) MRSA: Gram-positive, Methicillin Resistant Staphylococcus aureus (NPRC 001R), Inactive at >128 μg/mL
[8] = tested on: Staphylococcus aureus ATCC 25923; test: Antimicrobial MIC, 2-fold serial dilution; settings: for MIC: Staphylococcus aureus, ATCC25923, read-out: MIC (μg/mL) SA; for MIC (μg/mL) SA: Gram-positive, Staphylococcus aureus (ATCC 25923), Inactive at >128 μg/mL
[9] = tested on: Streptococcus pyogenes ATCC, 19615; test: Antimicrobial MIC, 2-fold serial dilution; settings: for MIC: Streptococcus pyogenes, read-out: MIC (μg/mL) SP; for MIC (μg/mL) SP: Gram-positive, Streptococcus pyogenes (ATCC, 19615), Inactive at >128 μg/mL
[10] = tested on: Shigella flexneri DMST 4423; test: Antimicrobial MIC, 2-fold serial dilution; settings: for MIC: Shigella flexneri, DMST4423, read-out: MIC (μg/mL) SF; for MIC (μg/mL) SF: Gram-negative, Shigella flexneri (DMST 4423), Inactive at >128 μg/mL
[11] = tested on: Pseudomonas aeruginosa ATCC 10145; test: Antimicrobial MIC, 2-fold serial dilution; settings: for MIC: Pseudomonas aeruginosa, ATCC10145, read-out: MIC (μg/mL) PA
[12] = tested on: Salmonella typhimurium DMST 562; test: Antimicrobial MIC, 2-fold serial dilution; settings: for MIC: Salmonella enterica, TYPHIMURIUM, read-out: MIC (μg/mL) STR; for MIC (μg/mL) STR: Gram-negative, Salmonella typhimurium (DMST 562), Inactive at >128 μg/mL
[13] = tested on: Escherichia coli TISTR 780; test: Antimicrobial MIC, 2-fold serial dilution; settings: for MIC (μg/mL) EC: Gram-negative, Escherichia coli (TISTR 780), Inactive at >128 μg/mL; for MIC: Escherichia coli, TISTR780, read-out: MIC (μg/mL) EC
[14] = tested on: Candida albicans ATCC 10231; test: Antimicrobial MIC, 2-fold serial dilution; settings: for MIC (μg/mL) CA: Fungi, Candida albicans (ATCC 10231), Inactive at >128 μg/mL; for MIC: Candida albicans, ATCC10231, read-out: MIC (μg/mL) CA

SMILES | Glycation inhibition (IC50, μM) [1] | Glucose consumption (IC50, μM) [2] | NO Inhibition (IC50, μM) [3] | MIC [4] [µg/mL] | MIC (μg/mL) EF [5] | MIC (μg/mL) MRSA [7] | MIC [8] [µg/mL] | MIC [11] [µg/mL] | MIC (μg/mL) EC [13] | MIC (μg/mL) CA [14] | MIC (μg/mL) ST [4] | MIC (μg/mL) MT [6] | MIC (μg/mL) SP [9] | MIC (μg/mL) SF [10] | MIC (μg/mL) STR [12] | MIC [5] [µg/mL] | MIC [13] [µg/mL] | MIC (μg/mL) SA [8] | other results
CC(C)=CCc1cc([C@@H]2CC(=O)c3c(O)cc(O)cc3O2)cc(CC=C(C)C)c1O [Compound 25, abyssinone V] | Inactive | Inactive | Inactive | 128 (≈ 313 µM) | Inactive | Inactive | 128 (≈ 313 µM) | 128 (≈ 313 µM) | Inactive | Inactive | – | – | – | – | – | – | – | – | MIC [6]: 128 µg/mL (≈ 313 µM); MIC [9]: 128 µg/mL (≈ 313 µM); MIC [10]: 128 µg/mL (≈ 313 µM); MIC [12]: 128 µg/mL (≈ 313 µM)
O=c1c(O)c(-c2ccccc2)oc2ccc(O)cc12 [Compound 17, 3,6-dihydroxyflavone] | Inactive | Inactive | Inactive | – | Inactive | Inactive | 128 (≈ 503 µM) | 128 (≈ 503 µM) | Inactive | Inactive | Inactive | Inactive | Inactive | Inactive | Inactive | – | – | – | –
CN[C@H](CC(C)C)C(=O)N[C@H]1C(=O)N[C@@H](CC(N)=O)C(=O)N[C@H]2C(=O)N[C@H]3C(=O)N[C@H](C(=O)N[C@H](C(=O)O)c4cc(O)cc(O)c4-c4cc3ccc4O)[C@H](O)c3ccc(c(Cl)c3)Oc3cc2cc(c3O[C@@H]2O[C@H](CO)[C@@H](O)[C@H](O)[C@H]2O[C@H]2C[C@](C)(N)[C@H](O)[C@H](C)O2)Oc2ccc(cc2Cl)[C@H]1O [Vancomycin, vancomycin, reference compound] | – | – | – | – | – | – | 0.5 (≈ 0.345 µM) | – | – | – | – | – | – | – | – | 2 (≈ 1.38 µM) | – | – | MIC [6]: 2 µg/mL (≈ 1.38 µM); MIC ([7]; Staphylococcus aureus, MRSA, read-out: MIC (μg/mL) MRSA): 1 µg/mL (≈ 0.69 µM); MIC [9]: 2 µg/mL (≈ 1.38 µM); MIC [14]: 4 µg/mL (≈ 2.76 µM)
O=c1c(O)c(-c2ccc(O)c(O)c2)oc2cc(O)cc(O)c12 [Quercetin, quercetin, reference compound] | – | – | – | – | – | – | – | – | – | – | – | – | – | – | – | – | – | – | IC50 [1]: 59.1 ± 0.78 µM
O=c1c(O)c(-c2ccc(O)cc2)oc2ccc(O)cc12 [Compound 16, 3,6,4′-trihydroxyflavone] | Inactive | Inactive | – | – | Inactive | Inactive | 128 (≈ 474 µM) | 128 (≈ 474 µM) | – | Inactive | Inactive | Inactive | Inactive | Inactive | Inactive | – | 128 (≈ 474 µM) | – | IC50 ([3]; Mus musculus, RAW264.7, read-out: NO Inhibition (IC50, μM)): 96.2 ± 1.61 µM
O=c1c(-c2ccc(O)cc2)coc2cc(O)cc(O)c12 [Compound 21, genistein] | Inactive | Inactive | Inactive | – | Inactive | Inactive | – | 128 (≈ 474 µM) | Inactive | Inactive | Inactive | Inactive | Inactive | Inactive | Inactive | – | – | Inactive | –
COc1ccc2c3c(oc2c1CC=C(C)C)-c1ccc(O)cc1OC3 [Compound 3, eryvarin D] | Inactive | Inactive | Inactive | – | Inactive | Inactive | – | 128 (≈ 381 µM) | – | Inactive | Inactive | Inactive | Inactive | Inactive | – | – | 128 (≈ 381 µM) | Inactive | MIC [12]: 128 µg/mL (≈ 381 µM)
COc1cc(O)cc2oc(-c3ccccc3)cc(=O)c12 [Compound 18, 5-methoxy-7-hydroxyflavone] | Inactive | Inactive | Inactive | 128 (≈ 477 µM) | Inactive | Inactive | 128 (≈ 477 µM) | 128 (≈ 477 µM) | – | Inactive | – | Inactive | Inactive | Inactive | Inactive | – | 128 (≈ 477 µM) | – | –
COc1ccc(C=CC(=O)O)c(O)c1 [Compound 28, 2-hydroxy-4-methoxy-cinnamic acid] | Inactive | Inactive | Inactive | – | Inactive | Inactive | – | 128 (≈ 659 µM) | Inactive | Inactive | Inactive | Inactive | Inactive | Inactive | Inactive | – | – | Inactive | –
O=c1oc2cc(O)ccc2c2oc3cc(O)ccc3c12 [Compound 6, coumestrol] | Inactive | Inactive | Inactive | 128 (≈ 477 µM) | – | – | – | 128 (≈ 477 µM) | – | – | – | Inactive | Inactive | – | Inactive | 128 (≈ 477 µM) | 128 (≈ 477 µM) | Inactive | MIC [10]: 128 µg/mL (≈ 477 µM); MIC [14]: 128 µg/mL (≈ 477 µM)
O=C1C[C@@H](c2ccccc2)Oc2cc(O)cc(O)c21 [Compound 15, pinocembrin] | – | Inactive | Inactive | – | Inactive | Inactive | 128 (≈ 499 µM) | 128 (≈ 499 µM) | – | Inactive | Inactive | Inactive | Inactive | – | Inactive | – | 128 (≈ 499 µM) | – | IC50 [1]: 83.1 ± 0.94 µM; MIC [10]: 128 µg/mL (≈ 499 µM)
CC(C)=CCc1cc(-c2coc3c(CC=C(C)C)c(O)ccc3c2=O)ccc1O [Compound 20, erysubin F] | Inactive | Inactive | Inactive | – | – | Inactive | – | – | Inactive | – | Inactive | Inactive | Inactive | Inactive | Inactive | 128 (≈ 328 µM) | – | – | MIC (μg/mL) PA ([11]; Gram-negative, Pseudomonas aeruginosa (ATCC 10145), Inactive at >128 μg/mL): Inactive
CC(C)=CCc1c(O)ccc2c1O[C@H]1c3ccc(O)cc3OC[C@@H]21 [Compound 11, phaseollidin] | Inactive | Inactive | Inactive | 128 (≈ 395 µM) | – | – | – | 128 (≈ 395 µM) | Inactive | – | – | – | – | Inactive | Inactive | 128 (≈ 395 µM) | – | – | MIC [6]: 128 µg/mL (≈ 395 µM); MIC [14]: 128 µg/mL (≈ 395 µM)
